Laboratory results published in patent US20190169221A1, “SUBSTITUTED NUCLEOSIDES, NUCLEOTIDES AND ANALOGS THEREOF” (Janssen BioPharma, Inc., priority 2016, published 2019).

Legend:
[1] = system: EV71; assay: Enterovirus assay, EV71 (RD cells); assay type: cell-based; conditions: Enterovirus A, 37° C.
Method: (§1) HeLa OHIO cells were purchased from Sigma Aldrich (St Louis, Mo.) and cultured in MEM with Glutamax (Gibco cat. #41090) supplemented with 10% FBS (Mediatech cat. #35-011-CV) and 1% penicillin/streptomycin (Mediatech cat. #30-002-CI), at 37° C. with 5% CO2. RD cells were purchased from ATCC (Manassas, Va.) and cultured in DMEM, supplemented with 10% FBS (Mediatech cat. #35-011-CV) and 1% penicillin/streptomycin (Mediatech cat. #30-002-CI), at 37° C. with 5% CO2. For […]68 and CVB3, HeLa-OHIO cells were plated at a density of 1.5×10^5 cells per mL (1.5×10^4 cells per well) in assay media (MEM without phenol red or L-glutamine (Gibco cat. #51200) supplemented with 1% FBS, 1% penicillin/streptomycin (Mediatech cat. #30-002-CI) and 1% Glutamax (Gibco cat. #35050)) in clear-bottom 96 well plates. For EV71, RD cells were plated at a density of 5×10^4 cells per mL (5000 cells per well) in assay media (DMEM supplemented with 2% FBS and 1% penicillin/streptomycin). After 24 h, media was removed and replaced with serially diluted compounds in assay media. For EC50 measurements, cells were infected in 100 μL assay media with a virus inoculum sufficient to obtain to cause 80-90% cytopathic effect. After 2-6 days, cell viability was measured using CellTiter Glo Luminescent Cell Viability Assay (Promega cat. #G7572). Cells infected with EV-71, EV-68 and CVB3 were cultured at 37° C., while cells infected with hV1b, hV-16, hV-75 were cultured at 33° C. 100 μL media was removed from each well and 100 μL CellTiter Glo reagent was added. Plates were incubated at R.T. for 5 mins, then luminescence was measured using a Perkin Elmer multilabel counter Victor3V. EC50 values were determined using XLFit.

[2] = system: Dengue virus type 2 strain New Guinea C (NG-C); assay: Dengue viral assay (cytopathic effect, Huh-7.5 cells); assay type: cell-based; conditions: Huh7.5, Dengue virus type 2 (NG-C strain), read-out: Dengue NGC EC50
Method: (§2) The Dengue virus type 2 strain New Guinea C (NG-C) and the Dengue virus type 4 strain H241 were purchased from ATCC (Manassas, Va.; item numbers VR-1584 and VR-1490, respectively). The Zika virus strain MR766 was purchased from ATCC (item #VR-1838) and the Zika virus strain IbH 30656 was purchased from BEI Resources (Manassas, Va.; item number NR-500066). 24 h prior to dosing, Huh-7.5 cells were plated in 96 well plates at a density of 1.5×10^5/mL in DMEM medium supplemented with 10% fetal bovine serum, 1% HEPES buffer, 1% Penicillin/Streptomycin and 1% non-essential amino acids (all Mediatech, Manassas, Va.). At the day of infection, serially diluted compounds were added to cells and incubated for 24 h. After the end of the 24 h pre-incubation period, cells were infected with either Dengue virus type 2 NG-C, Dengue virus type 4 H241, Zika virus strain MR766 or Zika virus strain IbH 30656. The virus inoculum was selected to cause 80-90% cytopathic effect in four (Zika) to five (Dengue) days. Infected cells were incubated for four to five days at 37° C., 5% CO2. To develop the assay, 100 μL media was replaced with 100 μl CellTiter-Glo® reagent (Promega, Madison, Wis.) and incubated for 10 mins at R.T. Luminescence was measured on a Victor ×3 multi-label plate reader. Potential compound cytotoxicity was determined using uninfected parallel cultures.

[3] = system: Human rhinovirus 1B; assay: Picornavirus / enterovirus assay, HRV 1B (HeLa-OHIO cells); assay type: cell-based; conditions: Rhinovirus A; HeLa-OHIO cells, 33° C.; read-out: HRV 1B EC50
[4] = system: Huh-7 cells containing the self-replicating, subgenomic HCV replicon; assay: HCV replicon assay; assay type: cell-based; conditions: Hepatitis C virus; Huh-7 replicon cells, 72 h, luciferase
[5] = system: Zika virus; assay: Zika viral assay (cytopathic effect, Huh-7.5 cells); assay type: cell-based; conditions: Huh7.5, read-out: Zika EC50
Method: as §2

[6] = system: Human rhinovirus 75; assay: Enterovirus assay, HRV 75 (HeLa-OHIO cells); assay type: cell-based; conditions: Rhinovirus A
Method: as §1, with “For EC50 measurements, cells were infected in 100 μL assay media with a virus inoculum sufficient to obtain to cause 80-90% cytopathic effect.” left out, “Cells infected with EV-71, EV-68 and CVB3 were cultured at 37° C., while cells infected with hV1b, hV-16, hV-75 were cultured at 33° C. 100 μL media was removed from each well and 100 μL CellTiter Glo reagent was added.” left out

[7] = system: Human rhinovirus 16; assay: Enterovirus assay, HRV 16 (HeLa-OHIO cells); assay type: cell-based; conditions: Rhinovirus A
Method: as §1, with “For EC50 measurements, cells were infected in 100 μL assay media with a virus inoculum sufficient to obtain to cause 80-90% cytopathic effect.” left out, “Cells infected with EV-71, EV-68 and CVB3 were cultured at 37° C., while cells infected with hV1b, hV-16, hV-75 were cultured at 33° C. 100 μL media was removed from each well and 100 μL CellTiter Glo reagent was added.” left out

[8] = system: CVB3; assay: Enterovirus assay, CVB3 (HeLa-OHIO cells); assay type: cell-based, Coxsackie virus 3B; conditions: Enterovirus B, 37° C.
Method: as §1, with “For EC50 measurements, cells were infected in 100 μL assay media with a virus inoculum sufficient to obtain to cause 80-90% cytopathic effect.” left out, “Cells infected with EV-71, EV-68 and CVB3 were cultured at 37° C., while cells infected with hV1b, hV-16, hV-75 were cultured at 33° C. 100 μL media was removed from each well and 100 μL CellTiter Glo reagent was added.” left out

[9] = system: Human rhinovirus 14; assay: Enterovirus assay, HRV 14 (HeLa-OHIO cells); assay type: cell-based; conditions: Rhinovirus B
[10] = molecular target: NS5B-BK (Delta-21) (Hepatitis C virus genotype 1b, UniProt P26663); assay: biochemical; design: species or system HCV
[11] = molecular target: human rhinovirus 16 polymerase (HRV16pol) (Human rhinovirus 16, UniProt Q82122); assay: Picornavirus polymerase inhibition assay; assay type: biochemical; conditions: triphosphates, read-out: Viral Polymerase Inhibition IC50 Picornavirus
Method: The enzyme activity of human rhinovirus 16 polymerase (HRV16pol) was measured as an incorporation of tritiated NMP into acid-insoluble RNA products. hV16pol assay reactions contained […] recombinant enzyme, 50 nM heteropolymeric RNA, about 0.5 μCi tritiated NTP, 0.1 mM of competing cold NTP, 40 mM Tris-HCl (pH 7.0), […] dithiothreitol and 0.5 mM MgCl2. Standard reactions were incubated for 2.5 h at 30° C., in the presence of increasing concentration of inhibitor. At the end of the reaction, RNA was precipitated with 10% TCA and acid-insoluble RNA products were filtered on a size exclusion 96-well plate. After washing of the plate, scintillation liquid was added and radiolabeled RNA products were detected using standard procedures with a Trilux Microbeta scintillation counter. The compound concentration at which the enzyme-catalyzed rate was reduced by 50% (IC50) was calculated by fitting the data to a non-linear regression (sigmoidal).

[12] = molecular target: Dengue viral polymerase (Dengue virus type 2, UniProt P14340); assay: biochemical; conditions: triphosphates; read-out: Viral Polymerase Inhibition IC50 Dengue

Sequence of human rhinovirus 16 polymerase (HRV16pol) (Q82122 1694-2153 limits assumed): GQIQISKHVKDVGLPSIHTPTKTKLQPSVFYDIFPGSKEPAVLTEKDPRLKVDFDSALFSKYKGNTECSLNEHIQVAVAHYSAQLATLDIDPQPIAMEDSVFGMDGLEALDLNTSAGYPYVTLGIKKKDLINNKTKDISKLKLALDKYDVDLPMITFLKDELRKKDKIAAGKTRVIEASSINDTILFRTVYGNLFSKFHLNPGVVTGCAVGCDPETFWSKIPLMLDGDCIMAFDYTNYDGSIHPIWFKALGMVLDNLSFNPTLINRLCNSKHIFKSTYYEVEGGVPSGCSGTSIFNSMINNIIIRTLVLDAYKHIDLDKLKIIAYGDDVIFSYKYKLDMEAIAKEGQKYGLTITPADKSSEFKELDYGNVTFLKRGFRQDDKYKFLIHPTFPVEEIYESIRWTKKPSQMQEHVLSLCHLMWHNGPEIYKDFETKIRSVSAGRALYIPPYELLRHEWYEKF
Sequence of NS5B-BK (Delta-21) (P26663 2420-2989 limits assumed): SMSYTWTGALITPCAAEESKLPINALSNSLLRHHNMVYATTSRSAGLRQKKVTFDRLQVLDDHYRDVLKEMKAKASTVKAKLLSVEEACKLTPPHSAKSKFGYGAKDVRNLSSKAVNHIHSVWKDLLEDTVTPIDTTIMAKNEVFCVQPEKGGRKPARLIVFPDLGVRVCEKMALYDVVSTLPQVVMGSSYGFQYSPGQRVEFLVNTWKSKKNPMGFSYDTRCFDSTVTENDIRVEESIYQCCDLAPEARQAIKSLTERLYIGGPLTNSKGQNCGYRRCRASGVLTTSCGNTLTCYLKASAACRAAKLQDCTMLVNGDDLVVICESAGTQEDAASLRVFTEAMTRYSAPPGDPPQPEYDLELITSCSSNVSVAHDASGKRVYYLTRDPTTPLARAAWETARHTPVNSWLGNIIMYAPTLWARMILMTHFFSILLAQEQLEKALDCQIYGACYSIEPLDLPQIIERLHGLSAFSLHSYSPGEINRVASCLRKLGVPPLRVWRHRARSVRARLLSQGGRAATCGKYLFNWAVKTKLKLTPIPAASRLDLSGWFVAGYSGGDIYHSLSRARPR

| SMILES | EC50 [2] [nM] | EC50 [3] [nM] | IC50 [10] [µM] | IC50 [11] [µM] | IC50 [12] [µM] | other results |
| --- | --- | --- | --- | --- | --- | --- |
| C#C[C@@]1(O)[C@H](O)[C@@H](CO)O[C@H]1c1ccc2c(N)ncnn12 [Compound 26, (2S,3R,4R,5R)-2-(4-aminopyrrolo[2,1-f][1,2,4]triazin-7-yl)-3-ethynyl-5-(hydroxymethyl)tetrahydrofuran-3,4-diol] | < 3000 | < 3000 |  |  |  | EC50 [1]: < 3000 nM |
| C#C[C@]1(OC(=O)C(C)C)[C@H](n2cnc3c(N)ncnc32)O[C@](F)(COC(=O)C(C)C)[C@H]1OC(=O)C(C)C [Compound 43, (2S,3S,4R,5R)-5-(6-amino-9H-purin-9-yl)-4-ethynyl-2-fluoro-2-((isobutyryloxy)methyl)tetrahydrofuran-3,4-diylbis(2-methylpropanoate)] | < 3000 | < 3000 |  |  |  | EC50 [1]: < 3000 nM |
| C[C@]1(O)[C@H](n2cnc3c(N)ncnc32)O[C@](F)(CO)[C@H]1O [Compound 13, (2S,3S,4R,5R)-5-(6-amino-9H-purin-9-yl)-2-fluoro-2-(hydroxymethyl)-4-methyltetrahydrofuran-3,4-diol] | > 100000 | 3000 to 30000 |  |  |  | EC50 [4]: 3 to 30 µM |
| C#C[C@]1(O)[C@H](n2cnc3c(N)ncnc32)O[C@](F)(CO)[C@H]1O [Compound 1, (2S,3S,4R,5R)-5-(6-amino-9H-purin-9-yl)-4-ethynyl-2-fluoro-2-(hydroxymethyl)tetrahydrofuran-3,4-diol] | < 3000 | < 3000 |  |  |  | EC50 [1]: < 3000 nM; EC50 [5]: < 3000 nM; EC50 [6]: < 3000 nM; EC50 [7]: < 3000 nM; EC50 [8]: < 3000 nM; EC50 [9]: < 3000 nM; EC50 [4]: < 3 µM |
| C[C@]1(F)[C@H](n2cnc3c(N)nc(N)nc32)O[C@](F)(CO)[C@H]1O [Compound 15, (2S,3S,4R,5R)-5-(2,6-diamino-9H-purin-9-yl)-2,4-difluoro-2-(hydroxymethyl)-4-methyltetrahydrofuran-3-ol] | > 100000 | 30000 to 100000 |  |  |  | EC50 [4]: > 100 µM |
| C#C[C@]1(O)[C@H](n2ccc3c(N)ncnc32)O[C@](F)(COP(=O)(O)OP(=O)(O)OP(=O)(O)O)[C@H]1O [Compound 19] |  |  | < 3 | < 3 | 3 to 30 |  |
| C#C[C@@]1(O)[C@H](O)[C@@H](COP(=O)(O)OP(=O)(O)OP(=O)(O)O)O[C@H]1n1cnc2c(N)nc(N)nc21 [Compound 18] |  |  | < 3 | < 3 | 3 to 30 |  |
| C#C[C@@]1(F)[C@H](O)[C@@H](COP(=O)(O)OP(=O)(O)OP(=O)(O)O)O[C@H]1c1cnc2c(N)ncnn12 [Compound 54] |  |  | < 3 | 30 to 100 | 30 to 100 |  |
| C#C[C@]1(O)[C@H](n2cc(C#N)c3c(N)ncnc32)O[C@](F)(COP(=O)(O)OP(=O)(O)OP(=O)(O)O)[C@H]1O [Compound 45] |  |  | < 3 | < 3 | < 3 |  |
| C=C=C[C@@]1(O)[C@H](O)[C@@H](COP(=O)(O)OP(=O)(O)OP(=O)(O)O)O[C@H]1n1cnc2c(N)ncnc21 [Compound 25] |  |  | < 3 | 3 to 30 | 3 to 30 |  |
| C#C[C@]1(O)[C@H](n2cnc3c(N)nc(F)nc32)O[C@](F)(COP(=O)(O)OP(=O)(O)OP(=O)(O)O)[C@H]1O [Compound 57] |  |  | < 3 | < 3 | < 3 |  |
| C#C[C@]1(O)[C@H](n2cc(F)c3c(N)ncnc32)O[C@](F)(COP(=O)(O)OP(=O)(O)OP(=O)(O)O)[C@H]1O [Compound 51] |  |  | < 3 | < 3 | < 3 |  |
| C#C[C@]1(O)[C@H](n2cc(F)c3c(N)ncnc32)O[C@](F)(CO)[C@H]1O [Compound 7, (2S,3S,4R,5R)-5-(4-amino-5-fluoro-7H-pyrrolo[2,3-d]pyrimidin-7-yl)-4-ethynyl-2-fluoro-2-(hydroxymethyl)tetrahydrofuran-3,4-diol] | < 3000 | < 3000 |  |  |  | EC50 [1]: < 3000 nM |
| C[C@]1(F)[C@H](n2cnc3c(N)nc(N)nc32)O[C@](F)(COP(=O)(O)OP(=O)(O)OP(=O)(O)O)[C@H]1O [Compound 21] |  |  | < 3 | < 3 | 30 to 100 |  |
| C#C[C@@]1(O)[C@H](O)[C@@H](COP(=O)(O)OP(=O)(O)OP(=O)(O)O)O[C@H]1c1cnc2c(N)ncnn12 [Compound 53] |  |  | < 3 | < 3 | 3 to 30 |  |
